In the supplement of paper PMC10307832:

Experiments:
Test in all cases: relative viability (nuclei count vs DMSO), 5 days (fraction); higher = more cells survive
CUDC-101 + Luminespib = compound: C#Cc1cccc(Nc2ncnc3cc(OC)c(OCCCCCCC(=O)NO)cc23)c1 [CUDC-101] + CCNC(=O)c1noc(-c2cc(C(C)C)c(O)cc2O)c1-c1ccc(CN2CCOCC2)cc1 [Luminespib] (partner 0.01 µM)
Summary of the method: (§1)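 Lung cancer cell lines, seeded in 1536-well plates, were treated the following day by pin tool with a single drug or with five library-drug doses (not always all listed) in √10 steps on top of a fixed anchor-drug dose. Cells were fixed and nuclei stained in one step after 5 days, and nuclei were counted. Relative viability is the nuclei count for treated wells divided by that for vehicle wells, reported as medians of duplicate plates.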

CUDC-101 + Decitabine = compound: C#Cc1cccc(Nc2ncnc3cc(OC)c(OCCCCCCC(=O)NO)cc23)c1 [CUDC-101] + Nc1ncn([C@H]2C[C@H](O)[C@@H](CO)O2)c(=O)n1 [Decitabine] (partner 2 µM)
Summary of the method: as §1

NVP-TAE684 + Phenformin = compound: COc1cc(N2CCC(N3CCN(C)CC3)CC2)ccc1Nc1ncc(Cl)c(Nc2ccccc2S(=O)(=O)C(C)C)n1 [NVP-TAE684] + N=C(N)NC(=N)NCCc1ccccc1 [Phenformin] (partner 250 µM)
Summary of the method: as §1

Vandetanib + Navitoclax = compound: COc1cc2/c(=N/c3ccc(Br)cc3F)nc[nH]c2cc1OCC1CCN(C)CC1 [Vandetanib] + CC1(C)CCC(c2ccc(Cl)cc2)=C(CN2CCN(c3ccc(C(=O)NS(=O)(=O)c4ccc(N[C@H](CCN5CCOCC5)CSc5ccccc5)c(S(=O)(=O)C(F)(F)F)c4)cc3)CC2)C1 [Navitoclax] (partner 0.5 µM)
Summary of the method: as §1

Cell Line | relative viability (CUDC-101 + Luminespib; first compound 0.01 µM) | relative viability (CUDC-101 + Luminespib; first compound 0.03162 µM) | relative viability (CUDC-101 + Luminespib; first compound 0.1 µM) | relative viability (CUDC-101 + Luminespib; first compound 0.3162 µM) | relative viability (CUDC-101 + Luminespib; first compound 1 µM) | relative viability (CUDC-101 + Decitabine; first compound 0.01 µM) | relative viability (CUDC-101 + Decitabine; first compound 0.03162 µM) | relative viability (CUDC-101 + Decitabine; first compound 0.1 µM) | relative viability (CUDC-101 + Decitabine; first compound 0.3162 µM) | relative viability (CUDC-101 + Decitabine; first compound 1 µM) | relative viability (NVP-TAE684 + Phenformin; first compound 0.2 µM) | relative viability (NVP-TAE684 + Phenformin; first compound 0.6325 µM) | relative viability (NVP-TAE684 + Phenformin; first compound 2 µM) | relative viability (Vandetanib + Navitoclax; first compound 0.02 µM) | relative viability (Vandetanib + Navitoclax; first compound 0.06325 µM) | relative viability (Vandetanib + Navitoclax; first compound 0.2 µM) | relative viability (Vandetanib + Navitoclax; first compound 0.6325 µM) | relative viability (Vandetanib + Navitoclax; first compound 2 µM)
NCI-H838 | 0.302 | 0.248 | 0.228 | 0.251 | 0.218 | 0.45 | 0.516 | 0.49 | 0.484 | 0.369 | 0.468 | 0.395 | 0.193 | 1.13 | 1.13 | 1.15 | 1.12 | 1.07
NCI-H1355 | 0.729 | 0.741 | 0.694 | 0.676 | 0.586 | 0.359 | 0.313 | 0.358 | 0.355 | 0.313 | 0.431 | 0.391 | 0.327 | 0.931 | 0.809 | 0.577 | 1.01 | 1.03
NCI-H1395 | 0.623 | 0.733 | 0.906 | 0.802 | 0.663 | 0.794 | 0.756 | 0.773 | 0.709 | 0.66 | 0.462 | 0.411 | 0.404 | 1.11 | 1.06 | 1.04 | 1.25 | 1.29
NCI-H1437 | 1.27 | 1.06 | 1.12 | 1.21 | 1.19 | 0.556 | 0.537 | 0.553 | 0.533 | 0.498 | 0.283 | 0.31 | 0.224 | 1.03 | 1.06 | 1.16 | 1.08 | 1.08
